The values that follow come from US20170008888A1 (KYORIN PHARMACEUTICAL CO., LTD., priority 2014, published 2017).

What all share (assay type): binding
Experiment [1] deals with AMPKa1 or AMPKa2. The experiment in a line: Probe-based (AX9989) kinase profiling in Jurkat lysate: AMPKa1 or AMPKa2. The procedure, abridged:
(§1)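 Gel-filtered Jurkat lysate (HEPES pH 7.5, 20 mM MnCl2, 5 mg/ml) was pre-incubated 15 min with compound at room temperature, then labelled with 5 μM acyl-phosphate ATP probe AX9989. Tryptic probe-labelled active-site peptides were streptavidin-captured and quantified by LC/MS. Percent inhibition reflected the decrease in labelled-peptide intensity versus no compound.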

Experiment [2] deals with T1, AurA (Homo sapiens, UniProt O14965).
T1 construct: screened for activity against several kinases in Jurkat cells; endogenous in cells; host or cells: Jurkat cell lysate
T1 sequence (O14965 1-403): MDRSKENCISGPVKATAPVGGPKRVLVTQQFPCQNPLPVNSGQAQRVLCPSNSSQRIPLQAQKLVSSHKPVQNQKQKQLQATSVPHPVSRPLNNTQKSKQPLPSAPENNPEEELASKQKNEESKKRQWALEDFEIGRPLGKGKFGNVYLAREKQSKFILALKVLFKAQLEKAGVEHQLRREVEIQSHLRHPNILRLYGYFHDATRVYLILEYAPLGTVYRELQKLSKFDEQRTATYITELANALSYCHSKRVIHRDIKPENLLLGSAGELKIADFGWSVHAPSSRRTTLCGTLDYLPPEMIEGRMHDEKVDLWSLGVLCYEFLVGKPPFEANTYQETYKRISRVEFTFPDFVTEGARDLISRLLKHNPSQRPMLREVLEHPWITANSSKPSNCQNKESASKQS
The experiment in a line: Probe-based (AX9989) kinase profiling in Jurkat lysate: AurA. The note with it: read-out: Kinase inhibition % at indicated screening concentration: AurA; for inhibition at 1 µM: screening concentration 1.0 μM; for inhibition at 0.1 µM: screening concentration 0.1 μM. Summed up: as §1

The target of experiment [3] is T2, TAO2 (Homo sapiens, UniProt Q9UL54).
T2 construct: screened for activity against several kinases in Jurkat cells; endogenous in cells; host or cells: Jurkat cell lysate
T2 sequence (Q9UL54 1-1235): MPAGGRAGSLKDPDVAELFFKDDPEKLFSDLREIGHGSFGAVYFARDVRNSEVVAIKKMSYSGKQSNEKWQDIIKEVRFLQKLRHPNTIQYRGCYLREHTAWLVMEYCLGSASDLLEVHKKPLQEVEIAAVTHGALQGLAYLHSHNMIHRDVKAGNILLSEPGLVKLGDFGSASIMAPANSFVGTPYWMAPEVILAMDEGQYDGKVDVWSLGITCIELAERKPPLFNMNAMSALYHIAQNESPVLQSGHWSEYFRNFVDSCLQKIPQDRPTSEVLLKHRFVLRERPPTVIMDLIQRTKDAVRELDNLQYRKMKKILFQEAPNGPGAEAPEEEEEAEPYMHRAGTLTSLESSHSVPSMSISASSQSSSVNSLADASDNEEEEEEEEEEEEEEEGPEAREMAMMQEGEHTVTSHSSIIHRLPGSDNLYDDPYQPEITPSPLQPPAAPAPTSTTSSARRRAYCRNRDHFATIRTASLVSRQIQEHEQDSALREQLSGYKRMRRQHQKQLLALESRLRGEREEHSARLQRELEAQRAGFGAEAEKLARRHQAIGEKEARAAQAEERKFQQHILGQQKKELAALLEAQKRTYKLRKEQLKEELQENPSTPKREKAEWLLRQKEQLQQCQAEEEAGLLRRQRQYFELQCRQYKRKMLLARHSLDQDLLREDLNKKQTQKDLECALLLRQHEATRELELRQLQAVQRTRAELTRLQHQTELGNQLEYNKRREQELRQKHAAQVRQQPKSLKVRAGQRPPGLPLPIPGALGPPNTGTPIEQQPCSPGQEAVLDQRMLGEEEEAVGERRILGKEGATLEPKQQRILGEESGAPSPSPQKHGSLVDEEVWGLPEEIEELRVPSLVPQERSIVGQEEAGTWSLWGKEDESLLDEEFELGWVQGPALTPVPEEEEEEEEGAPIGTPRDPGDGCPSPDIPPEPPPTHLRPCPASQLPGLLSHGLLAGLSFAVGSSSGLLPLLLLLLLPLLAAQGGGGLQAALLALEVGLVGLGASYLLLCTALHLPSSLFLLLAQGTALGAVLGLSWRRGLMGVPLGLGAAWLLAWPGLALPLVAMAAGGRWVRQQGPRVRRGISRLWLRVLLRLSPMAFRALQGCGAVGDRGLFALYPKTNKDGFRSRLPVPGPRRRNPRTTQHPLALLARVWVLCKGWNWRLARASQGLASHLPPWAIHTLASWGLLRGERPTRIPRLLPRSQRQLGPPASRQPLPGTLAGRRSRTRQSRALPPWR
In words: Probe-based (AX9989) kinase profiling in Jurkat lysate: TAO2. The settings on record: read-out: Kinase inhibition % at indicated screening concentration: TAO2; for inhibition at 1 µM: screening concentration 1.0 μM; for inhibition at 0.1 µM: screening concentration 0.1 μM. Summed up:
as §1

Experiment [4] addresses T3, ERK5 (Homo sapiens, UniProt Q13164).
T3 construct: screened for activity against several kinases in Jurkat cells; endogenous in cells; host or cells: Jurkat cell lysate
The experiment in a line: Probe-based (AX9989 acyl phosphate ATP probe) kinase profiling in Jurkat lysate: ERK5. The note with it: for IC50: calculated from percent inhibition of AX9989 labeling and the screening concentration, Jurkat lysate; for inhibition at 1 µM: screening concentration 1.0 μM; for inhibition at 1 µM / inhibition at 0.1 µM: read-out: Kinase inhibition % at indicated screening concentration: ERK5; for inhibition at 0.1 µM: screening concentration 0.1 μM. The procedure, abridged:
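Gel-filtered Jurkat lysate (5 mg/ml, 20 mM MnCl2) preincubated 15 min at room temperature with compound, then labelled with 5 μM AX9989 acyl phosphate ATP probe. Probe-labelled ERK5 active-site peptides quantified by LC/MS after trypsin digestion and streptavidin capture; IC50 calculated from percent inhibition at the screening concentration.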

As a reminder, the IC50 is the concentration needed to halve the response being measured.

Each structure is given as a SMILES string. Some results are limits rather than exact numbers.

T3 sequence (Q13164 whole entry): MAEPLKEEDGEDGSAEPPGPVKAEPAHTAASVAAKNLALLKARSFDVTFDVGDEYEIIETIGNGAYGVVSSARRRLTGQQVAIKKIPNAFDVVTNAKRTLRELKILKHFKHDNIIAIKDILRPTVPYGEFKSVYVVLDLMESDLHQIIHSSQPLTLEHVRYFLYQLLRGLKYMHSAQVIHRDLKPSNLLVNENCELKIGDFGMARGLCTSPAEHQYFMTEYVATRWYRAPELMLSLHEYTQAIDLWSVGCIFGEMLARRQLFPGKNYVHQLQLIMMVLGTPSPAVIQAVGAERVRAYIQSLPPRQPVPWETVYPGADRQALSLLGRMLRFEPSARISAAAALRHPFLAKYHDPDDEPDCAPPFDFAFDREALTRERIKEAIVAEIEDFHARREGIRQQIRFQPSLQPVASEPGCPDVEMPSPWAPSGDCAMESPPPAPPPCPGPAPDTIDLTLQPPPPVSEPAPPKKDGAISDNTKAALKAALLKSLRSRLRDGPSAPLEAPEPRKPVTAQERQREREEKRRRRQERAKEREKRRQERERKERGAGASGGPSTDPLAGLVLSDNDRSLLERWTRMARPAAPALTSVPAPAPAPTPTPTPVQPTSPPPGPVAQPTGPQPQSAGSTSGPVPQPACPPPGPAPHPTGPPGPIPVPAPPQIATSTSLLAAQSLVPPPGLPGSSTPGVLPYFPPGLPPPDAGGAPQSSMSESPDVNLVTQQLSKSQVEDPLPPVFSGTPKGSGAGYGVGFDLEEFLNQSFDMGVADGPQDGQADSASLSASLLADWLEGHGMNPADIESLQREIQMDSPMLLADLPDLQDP

On to `CCOc1cc(C(=O)NCCCN(CC)CC)ccc1Nc1cc2c(cn1)N(C)C(=O)c1ccccc1N2C` [Compound 54], for which the “Kinase inhibition % at indicated screening concentration: AMPKa1 or AMPKa2” value (from here on “Kinase inhibition %”) in experiment [1] (screening concentration 1.0 μM) is on record as “E (E is ≦35%)”. Moreover, the inhibition at 1 µM in experiment [2] was at most 35%; in experiment [3], at most 35%; in experiment [4] it was 75 to 90%. Moreover, the IC50 in experiment [4] was 101 to 500 nM.

For the compound `CCOc1cc(C(=O)NCCN(C(C)C)C(C)C)ccc1Nc1cc2c(cn1)N(C)C(=O)c1ccccc1N2C` [Compound 55], in experiment [1] (screening concentration 0.1 μM), the “Kinase inhibition %” value was “E (E is ≦35%)”. The figures for the inhibition at 0.1 µM in experiment [2], in experiment [3] and in experiment [4] were at most 35%, at most 35% and 50 to 75%, respectively. Besides, the IC50 in experiment [4] is at most 50 nM.

For `CCOc1cc(C(=O)N2CC[C@@H](N3CCCCC3)C2)ccc1Nc1cc2c(cn1)N(C)C(=O)c1occc1N2C` [Compound 56], the “Kinase inhibition %” value in experiment [1] (screening concentration 0.1 μM) was “E (E is ≦35%)”. Besides, the inhibition at 0.1 µM in experiment [2] is at most 35%; in experiment [3], at most 35%; in experiment [4] it was above 90%. Besides, in experiment [4], the IC50 was at most 50 nM.

For the compound `CCOc1cc(C(=O)NCC2CC2)ccc1Nc1cc2c(cn1)N(C)C(=O)c1ccccc1N2C` [Compound 57], the “Kinase inhibition %” value in experiment [1] (screening concentration 1.0 μM) is given as “E (E is ≦35%)”. Moreover, the inhibition at 1 µM in experiment [2] was at most 35%; in experiment [3], at most 35%; in experiment [4] it was 50 to 75%. The half-maximal inhibitory concentration (IC50) in experiment [4] was 101 to 500 nM.

With `CCOc1cc(C(=O)N2CCC(N3CCN(C)CC3)CC2)ccc1Nc1cc2c(cn1)N(C)C(=O)c1ccccc1N2C` [Compound 61], in experiment [1] (screening concentration 1.0 μM), the “Kinase inhibition %” value was “E (E is ≦35%)”. The inhibition at 1 µM is at most 35% in experiment [2], at most 35% in experiment [3] and above 90% in experiment [4]. The IC50 in experiment [4] was 50 to 100 nM.

As for `CCOc1cc(C(=O)N2CCNCC2)ccc1Nc1cc2c(cn1)N(C)C(=O)c1ccccc1N2C` [Compound 62], the “Kinase inhibition %” value in experiment [1] (screening concentration 1.0 μM) is reported as “E (E is ≦35%)”. The results for the inhibition at 1 µM in experiment [2], in experiment [3] and in experiment [4] were at most 35%, at most 35% and above 90%, respectively. Besides, in experiment [4], the IC50 is at most 50 nM.

As for `CCOc1cc(C(=O)N2CCC(OC)CC2)ccc1Nc1cc2c(cn1)N(C)C(=O)c1ccccc1N2C` [Compound 63], in experiment [1] (screening concentration 1.0 μM), the “Kinase inhibition %” value was “E (E is ≦35%)”. In addition, the inhibition at 1 µM in experiment [2] is at most 35%; in experiment [3], at most 35%; in experiment [4], above 90%. Besides, the IC50 in experiment [4] is 50 to 100 nM.

With `CN1C(=O)c2ccccc2N(C)c2cc(NC3CCC(C(=O)NC4CCOCC4)CC3)ncc21` (stereo not drawn) [Compound 64], the “Kinase inhibition %” value in experiment [1] (screening concentration 1.0 μM) is listed as “E (E is ≦35%)”. Further, the inhibition at 1 µM is at most 35% in experiment [2], at most 35% in experiment [3] and 75 to 90% in experiment [4]. Moreover, in experiment [4], the IC50 is 101 to 500 nM.

As for `CCOc1cc(C(=O)N2CCC(N3CCN(C)CC3)CC2)ccc1Nc1cc2c(cn1)N(C)C(=O)c1occc1N2C` [Compound 65], in experiment [1] (screening concentration 0.1 μM), the “Kinase inhibition %” value is given as “E (E is ≦35%)”. Also, the inhibition at 0.1 µM is at most 35% in experiment [2], at most 35% in experiment [3] and above 90% in experiment [4]. Besides, in experiment [4], the IC50 is at most 50 nM.
